This is an account of results in paper PMC5025780, “Copper(II) ions affect the gating dynamics of the 20S proteasome: a molecular and in cell study” (Scientific Reports, 2016).

Test [1] deals with T1, α3ΔN mutant 20S proteasome.
T1 construct: made in house; host or cells: Saccharomyces cerevisiae (mutant strain)
Put plainly: ChT-L peptidase activity of α3ΔN open-gate mutant yeast proteasome. It is filed as biochemical, Saccharomices Cerevisiae. As to conditions: permanently open gate mutant. The source says:
All the experimental data collected so far reconcile with the hypothesis that Cu(II) ions have a direct influence on the gating mechanisms of the 20S proteasome. To further validate this hypothesis, we assayed the effect of Cu(II) ions on the ChT-L peptidase activity of a mutant proteasome (α3ΔN) where deletion of the first nine N terminal residues of the α3 subunit results in permanently open gate conformation. […] It is worthy to remark here that several histidine residues are located at the entrance of the channel and, more specifically in the proximity of the N-terminal tail of the α3 subunit (Fig. 4 panels B and C). It is tempting to speculate that these His residues may play a major role in driving the Copper(II) –mediated gating dynamics.
Purified human 20S proteasome (hCP) and the fluorogenic substrates Suc-LLVY-AMC, Z-Leu-Leu-Glu-AMC, and Ac-Arg-Leu-Arg-AMC used to assay the ChT-L, T-L, and C-L activity, were from Boston Biochem (Cambridge, MA, USA). Bathocuproinedisulfonic acid disodium salt (BCS), dithiothreitol (DTT), N-Acetyl-L-Cysteine (NAC), Sodium dodecylsulphate (SDS) as well as CuCl2 and Zn(NO3)2 were from Sigma-Aldrich (St. Louis, MO). Proteasome inhibitors Epoxomicin were obtained from Enzo Life Science. […]

Test [2] relates to ubiquitinated proteins in Hela cells. The experiment in a line: Western blot of polyubiquitinated proteins in HeLa cells. The following applies: 20 and 80 μM Cu(II), 24 hours. It is filed as cell-based, human. As to the method:
After 24 h of copper(II) treatment (20–80 μM), HeLa cells were washed with cold PBS, and lysed with 100 μL of RIPA buffer for 5 minutes at 4 °C, sonicated and centrifuged for 10 minutes at 4 °C (1400 rpm). The protein content of lysates is quantified using the BCA method, (protein assay kit, BioRad). Western blotting analysis for polyUb chains was performed on total protein extracts ([…]). Samples were loaded onto 4–12% bis-Tris gel, (Invitrogen). After separation, proteins were transferred onto a nitrocellulose membrane. Membranes were blotted at 4 °C O/N with the following primary antibodies: rabbit monoclonal anti-polyubiquitin (linkage specific K48) (1:2500, Abcam), and mouse anti-β-actin (1:1000, Sigma Aldrich). Secondary goat anti-rabbit labeled with IRDye 680 (1:25.000 Li-COR Biosciences) and goat anti-mouse labeled with IRDye 800 (1:25.000 Li-COR Biosciences) were used at RT for 45 min. Hybridization signals were detected with the Odyssey Infrared Imaging System (LI-COR Biosciences).

Turning to `[Cl][Cu][Cl]` [Cu(II), CuCl2], the “Effect on ChT-L peptidase activity of α3ΔN mutant” value in test [1] is “did not affect proteasome activity”. In addition, the “Accumulation of ubiquitinated proteins” value in test [2] is given as “enhanced the accumulation of ubiquitinated proteins”.
